In paper PMC10317887, “Hypoglycaemia frequency and physiological response after double or triple doses of once-weekly insulin icodec vs once-daily insulin glargine U100 in type 2 diabetes: a randomised crossover trial” (Diabetologia, 2023):
Read-outs that look alike come from different tables or passages of the source.

Assays:
type 1 diabetes = conditions: cited from earlier work
Text: In addition, the low insulin receptor binding affinity of icodec contributes to its long half-life by reducing the clearance rate, as insulin is mainly cleared by internalisation following binding to and activation of the insulin receptor [9, 10]. In case of excess amounts of icodec throughout the body, e.g ...

[1] = test system: individuals with type 2 diabetes; type: in vivo, human; conditions: for Mean PGnadir, estimated geometric mean: all participants; for Time to recovery from PGnadir to PG5.5 mmol/l, estimated geometric mean: constant i.v. glucose 5.5 mg kg^−1 min^−1; for Time to recovery from PGnadir to PG5.5 mmol/l, estimated geometric mean / Glucose needed from PGnadir to PG5.5 mmol/l, estimated geometric mean: individuals with PG <3.3 mmol/l at initiation of recovery; for Time to decline from PG5.5 mmol/l to PG3.9 mmol/l, estimated geometric mean: individuals with PG decline to <3.0 mmol/l and/or hypoglycaemia symptoms; for Time to decline from PG5.5 mmol/l to PG3.0 mmol/l, estimated geometric mean: individuals with PG decline to <3.0 mmol/l; for Mean PGnadir in the subgroup analysis: subgroup PGnadir <3.0 mmol/l and/or symptoms
Method: During the two treatment periods, participants received once-weekly icodec for 6 weeks or once-daily glargine U100 for 11 days in randomised order. […] Treatment periods were separated by 35–49 days of washout following icodec and 4–11 days of washout following glargine U100. Icodec (4200 nmol/ml; Novo Nordisk, Bagsværd, Denmark) was administered s.c. in the left thigh at 20:00 hours by qualified site staff using a NovoPen 4 pen injector (Novo Nordisk). […] At the start of week 1, a one-time additional 100% icodec dose was administered to accelerate time to steady state, followed by a normal dose at week 2, a double dose at week 3 (prior to hypoglycaemia induction), no dose at week 4 (due to the double dose given the week before), a normal dose at week 5, and a triple dose at week 6 (prior to hypoglycaemia induction). Insulin glargine U100 (100 U/ml [600 nmol/ml]; Sanofi, Paris, France) was administered s.c. in the right thigh at 09:00 hours by qualified site staff using a SoloStar pen injector (Sanofi). A normal dose of once-daily glargine U100 was established during run in. Glargine U100 was administered at a normal dose for 3 days followed by a double dose on day 4 (prior to hypoglycaemia induction), no dose on day 5 (due to the double dose given the day before), then a normal dose for 5 days, and a triple dose on day 11 (prior to hypoglycaemia induction).
Hypoglycaemia induction was carried out during weeks 3 (double dose) and 6 (triple dose) for icodec and on days 4 (double dose) and 11 (triple dose) for glargine U100 while at steady state. To initiate hypoglycaemia induction, participants should not have experienced hypoglycaemia (PG <3.9 mmol/l) within 24 h or have any relevant medical condition that could confound the outcomes or pose unacceptable risk to the participant. Hypoglycaemia induction (Fig. 1b) was initiated at 16:00 hours 2 days after double/triple icodec dosing (44 h post dose) and on the day of double/triple glargine U100 dosing (7 h post dose). These timings were selected since they approximated the expected time of maximum glucose-lowering effect for both insulin products based on pharmacokinetic/pharmacodynamic modelling performed prior to the trial. For 7.5 h prior to hypoglycaemia induction, PG was kept at 5.5 mmol/l by variable i.v. infusion of glucose (20% wt/vol) or human soluble insulin (100 U/ml in 99.6 ml saline [154 mmol/l NaCl]). PG was measured by a Super GL2 Glucose Analyzer (Dr. Müller Gerätebau, Freital, Germany). Insulin infusion was terminated 60 min prior to hypoglycaemia induction at the latest. PG was maintained at 5.5 mmol/l±20% from 60 min to 30 min prior to hypoglycaemia induction and at 5.5 mmol/l±10% during the last 30 min prior to hypoglycaemia induction. Hypoglycaemia induction was initiated by terminating glucose infusion, thereby allowing PG to decline towards the minimum (nadir) PG target level of no less than 2.5 mmol/l. The handling of alternative scenarios, e.g. PGnadir >2.5 mmol/l, slow PG decline towards hypoglycaemia or slow recovery from hypoglycaemia, is described in electronic supplementary material (ESM) Methods. The investigator recorded if the PGnadir was <3.0 mmol/l or ≥3.0 mmol/l with hypoglycaemic symptoms. The PGnadir level was maintained for 15 min by variable i.v. glucose as needed. Subsequently, euglycaemia was restored by constant i.v. glucose (5.5 mg kg^−1 min^−1) until PG was 5.5 mmol/l, which was maintained until the next morning (between 07:00 hours and 09:00 hours) by variable i.v. glucose. During hypoglycaemia induction, participants remained fasted (except for water ad libitum) and stayed in a supine or semi-supine position (except when cognitive tests were performed). Participants stayed at the clinical site for at least 12 h following each hypoglycaemia induction experiment. […]

[2] = test system: individuals with type 2 diabetes; assay: Hypoglycaemia awareness question 'Do you feel hypo?' during hypoglycaemia induction; type: in vivo, human; conditions: subgroup
Method: Hypoglycaemia awareness was determined by asking the question, ‘Do you feel hypo?’, to the participant.

glucagon = assay: Counterregulatory hormone response: plasma glucagon (ELISA); type: in vivo, human; conditions: plasma, subgroup
Method: (§1) Plasma concentrations of glucagon were measured by an enzyme-linked immunosorbent assay (Mercodia AB, Uppsala, Sweden). Plasma concentrations of adrenaline (epinephrine) and noradrenaline (norepinephrine) were measured by liquid chromatography-mass spectrometry (Thermo Fisher Scientific, Dreieich, Germany). Serum concentrations of cortisol and growth hormone were measured by electrochemiluminescent immunoassays (Roche Diagnostics, Mannheim, Germany).

adrenaline (epinephrine) = assay: Counterregulatory hormone response: plasma adrenaline (LC-MS); type: in vivo, human; conditions: plasma, subgroup
Method: as §1

[3] = test system: noradrenaline (norepinephrine); assay: Counterregulatory hormone response: plasma noradrenaline (LC-MS); type: in vivo, human; conditions: plasma, subgroup
Method: as §1

cortisol = assay: Counterregulatory hormone response: serum cortisol (electrochemiluminescent immunoassay); type: in vivo, human; conditions: serum, subgroup; for Cortisol at PGnadir, estimated geometric mean: n=19 icodec
Method: as §1

growth hormone = assay: Counterregulatory hormone response: serum growth hormone (electrochemiluminescent immunoassay); type: in vivo, human; conditions: serum, subgroup; for Growth hormone at PGnadir, estimated geometric mean: n=19 icodec
Method: as §1

[4] = test system: individuals with type 2 diabetes; conditions: in vivo
Text: Safety assessments during the trial included adverse events (AEs), hypoglycaemic episodes (other than those induced), vital signs (other than those assessed during hypoglycaemia induction), electrocardiograms, physical examinations and clinical laboratory assessments (haematology, biochemistry and urinalysis).
AEs and hypoglycaemic episodes (other than those induced) during the treatment periods were summarised. The end of each treatment period was defined as 7 days after the last icodec dose and 2 days after the last glargine U100 dose. […] Hypoglycaemic episodes were classified as level 1 (PG <3.9 mmol/l and ≥3.0 mmol/l), level 2 (PG <3.0 mmol/l) and level 3 (severe cognitive impairment requiring assistance for recovery) [20].

[5] = double dose, n=15 icodec, 13 glargine U100
[6] = double dose, n=20 icodec, 19 glargine U100
[7] = double dose, n=17 icodec, 15 glargine U100
[8] = triple dose, n=18 icodec, 22 glargine U100
[9] = triple dose, n=20 icodec, 29 glargine U100
[10] = triple dose, n=20 icodec, 28 glargine U100

neutral protamine Hagedorn insulin
Participants with clinically significant hypoglycaemia (type 1 diabetes; in vivo): 78%

insulin glargine U100
Time to full recovery from hypoglycaemia ([1]; constant i.v. glucose infusion at 5.5 mg kg^−1 min^−1, double and triple doses): ≤ 30 min | Mean PGnadir, estimated geometric mean ([1]; double dose, n=43 icodec, 42 glargine U100): 3.3 mmol/L | Time to recovery from PGnadir to PG5.5 mmol/l, estimated geometric mean [1, 5]: 21.0 min | Glucose needed from PGnadir to PG5.5 mmol/l, estimated geometric mean [1, 5]: 111 mg/kg | Time to decline from PG5.5 mmol/l to PG3.9 mmol/l, estimated geometric mean [1, 6]: 1.1 h | Time to decline from PG5.5 mmol/l to PG3.0 mmol/l, estimated geometric mean [1, 7]: 4.5 h | Mean PGnadir in the subgroup analysis ([1]; double dose): 2.9 mmol/L | Mean PGnadir, estimated geometric mean ([1]; triple dose, n=38 icodec, 40 glargine U100): 2.9 mmol/L | Time to recovery from PGnadir to PG5.5 mmol/l, estimated geometric mean [1, 8]: 23.3 min | Glucose needed from PGnadir to PG5.5 mmol/l, estimated geometric mean [1, 8]: 115 mg/kg | Time to decline from PG5.5 mmol/l to PG3.9 mmol/l, estimated geometric mean [1, 9]: 0.7 h | Time to decline from PG5.5 mmol/l to PG3.0 mmol/l, estimated geometric mean [1, 10]: 2.2 h | Mean PGnadir in the subgroup analysis ([1]; triple dose): 2.7 mmol/L | Proportion of individuals answering 'Yes' to 'Do you feel hypo?' ([2]; double dose, at PG3.0 mmol/l, n=9/17 icodec, 2/15 glargine U100): 13.3% | Proportion of individuals answering 'Yes' to 'Do you feel hypo?' ([2]; double dose, at PGnadir, n=14/20 icodec, 10/19 glargine U100): 52.6% | Proportion of individuals answering 'Yes' to 'Do you feel hypo?' ([2]; triple dose, at PG3.0 mmol/l, n=5/20 icodec, 8/28 glargine U100): 28.6% | Proportion of individuals answering 'Yes' to 'Do you feel hypo?' ([2]; triple dose, at PGnadir, n=9/20 icodec, 15/29 glargine U100): 51.7% | Glucagon at PG3.0 mmol/l, estimated geometric mean (glucagon; [7]): 47.7 ng/L | Glucagon at PGnadir, estimated geometric mean (glucagon; double dose, n=19 icodec, 19 glargine U100): 53.1 ng/L | Glucagon at PG3.0 mmol/l, estimated geometric mean (glucagon; [10]): 51.6 ng/L | Glucagon at PGnadir, estimated geometric mean (glucagon; [9]): 59.1 ng/L | Adrenaline at PG3.0 mmol/l, estimated geometric mean (adrenaline (epinephrine); [7]): 528.3 pmol/L | Adrenaline at PGnadir, estimated geometric mean (adrenaline (epinephrine); [6]): 590.9 pmol/L | Adrenaline at PG3.0 mmol/l, estimated geometric mean (adrenaline (epinephrine); [10]): 312.2 pmol/L | Adrenaline at PGnadir, estimated geometric mean (adrenaline (epinephrine); [9]): 570.9 pmol/L | Noradrenaline at PG3.0 mmol/l, estimated geometric mean [3, 7]: 853.0 pmol/L | Noradrenaline at PGnadir, estimated geometric mean [3, 6]: 907.4 pmol/L | Noradrenaline at PG3.0 mmol/l, estimated geometric mean [3, 10]: 843.0 pmol/L | Noradrenaline at PGnadir, estimated geometric mean [3, 9]: 890.5 pmol/L | Cortisol at PG3.0 mmol/l, estimated geometric mean (cortisol; [7]): 153.8 nmol/L | Cortisol at PGnadir, estimated geometric mean (cortisol; double dose, 19 glargine U100): 300.3 nmol/L | Cortisol at PGnadir, estimated geometric mean (cortisol; triple dose, 29 glargine U100): 197.6 nmol/L | Cortisol at PG3.0 mmol/l, estimated geometric mean (cortisol; [10]): 122.9 nmol/L | Growth hormone at PG3.0 mmol/l, estimated geometric mean (growth hormone; [7]): 4.1 µg/L | Growth hormone at PGnadir, estimated geometric mean (growth hormone; double dose, 19 glargine U100): 3.5 µg/L | Growth hormone at PGnadir, estimated geometric mean (growth hormone; triple dose, 29 glargine U100): 3.5 µg/L | Growth hormone at PG3.0 mmol/l, estimated geometric mean (growth hormone; [10]): 2.4 µg/L | AE rate [4]: 21.3 AEs per participant-year of exposure | Duration of level 2 hypoglycaemic episodes, mean±SD [4]: 37.7 ± 15.0 min | Number of AEs reported [4]: 33 AEs | Rate of clinically significant hypoglycaemic episodes (level 2, PG <3.0 mmol/l) [4]: 3.0 episodes per participant-year of exposure | Severe hypoglycaemic episodes (level 3) [4]: no severe hypoglycaemic episodes | Participants with clinically significant hypoglycaemia (type 1 diabetes; in vivo): almost all participants

insulin degludec
Participants with clinically significant hypoglycaemia (type 1 diabetes; type 1 diabetes, triple doses, ref [8], [24]): almost all participants

insulin detemir
Participants with clinically significant hypoglycaemia (type 1 diabetes; in vivo): 78%
